{
  "source": "ChEMBL document CHEMBL4152341",
  "about": "“Small Molecules Simultaneously Inhibiting p53-Murine Double Minute 2 (MDM2) Interaction and Histone Deacetylases (HDACs): Discovery of Novel Multitargeting Antitumor Agents” (J Med Chem, 2018)",
  "key": {"MCF7": {"test_system": "MCF7", "experiment": "cells", "settings": "Homo sapiens, MCF7, 72 h", "description": "Antiproliferative activity against human MCF7 cells after 72 hrs by CCK8 assay"}, "Rattus norvegicus [1]": {"test_system": "Rattus norvegicus", "experiment": "AUC (0 to infinity) in Sprague-Dawley rat at 20 mg/kg, po administered via gavage by LC-MS/MS analysis", "type": "ADME, organism-based", "parameters": "dose 20 mg/kg, route oral, time infinity", "settings": "in vivo"}, "[2]": {"experiment": "Terminal half life in Sprague-Dawley rat at 2 mg/kg, iv administered as bolus dose by LC-MS/MS analysis", "type": "ADME, organism-based", "settings": "in vivo, read-out: beta t1/2 (converted)"}, "Histone deacetylase 2": {"biological_target": "Histone deacetylase 2 (Homo sapiens, UniProt Q92769)", "sequence (Q92769 whole entry)": "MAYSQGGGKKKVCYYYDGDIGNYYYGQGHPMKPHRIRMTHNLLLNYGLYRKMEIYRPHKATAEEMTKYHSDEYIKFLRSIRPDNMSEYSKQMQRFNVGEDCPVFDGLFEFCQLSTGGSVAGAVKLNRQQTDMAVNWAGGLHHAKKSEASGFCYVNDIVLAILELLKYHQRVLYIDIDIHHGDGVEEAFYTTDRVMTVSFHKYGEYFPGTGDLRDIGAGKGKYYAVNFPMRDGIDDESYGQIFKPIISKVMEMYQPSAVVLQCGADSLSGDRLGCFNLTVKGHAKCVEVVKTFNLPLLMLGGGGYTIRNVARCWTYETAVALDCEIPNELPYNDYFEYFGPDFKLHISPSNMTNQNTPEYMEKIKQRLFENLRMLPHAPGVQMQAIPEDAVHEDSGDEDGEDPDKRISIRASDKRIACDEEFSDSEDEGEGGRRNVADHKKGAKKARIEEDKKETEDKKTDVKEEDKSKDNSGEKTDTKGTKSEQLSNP", "experiment": "Inhibition of HDAC2 (unknown origin) after 30 mins by fluorescence assay"}, "Rattus norvegicus [3]": {"test_system": "Rattus norvegicus", "experiment": "Volume of distribution at steady state in Sprague-Dawley rat at 2 mg/kg, iv administered as bolus dose by LC-MS/MS analysis", "type": "ADME, organism-based", "settings": "in vivo"}, "Histone deacetylase 3": {"biological_target": "Histone deacetylase 3 (Homo sapiens, UniProt O15379)", "sequence (O15379 whole entry)": "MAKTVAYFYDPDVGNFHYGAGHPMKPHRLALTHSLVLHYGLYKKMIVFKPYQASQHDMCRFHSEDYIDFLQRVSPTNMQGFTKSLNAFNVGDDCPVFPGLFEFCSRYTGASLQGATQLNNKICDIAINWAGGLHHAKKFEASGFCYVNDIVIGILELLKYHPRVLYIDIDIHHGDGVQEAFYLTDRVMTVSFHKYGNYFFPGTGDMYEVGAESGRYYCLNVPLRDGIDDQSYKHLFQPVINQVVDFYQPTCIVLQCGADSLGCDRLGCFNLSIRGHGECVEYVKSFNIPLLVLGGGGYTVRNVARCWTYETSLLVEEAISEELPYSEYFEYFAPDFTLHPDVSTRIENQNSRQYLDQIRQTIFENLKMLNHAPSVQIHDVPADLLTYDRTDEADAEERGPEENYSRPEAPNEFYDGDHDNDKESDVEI", "experiment": "Inhibition of HDAC3 (unknown origin) after 30 mins by fluorescence assay"}, "HCT-116": {"test_system": "HCT-116", "experiment": "Antiproliferative activity against human HCT116 cells after 72 hrs by CCK8 assay", "type": "functional, cell-based", "settings": "HCT-116, 72 h"}, "Rattus norvegicus [4]": {"test_system": "Rattus norvegicus", "experiment": "AUC (0 to infinity) in Sprague-Dawley rat at 2 mg/kg, iv administered as bolus dose by LC-MS/MS analysis", "type": "ADME, organism-based", "parameters": "dose 2 mg/kg, time infinity, route intravenous", "settings": "in vivo"}, "Mus musculus [5]": {"test_system": "Mus musculus", "experiment": "Toxicity in human A549 cells xenografted in BALB/C nude mouse assessed as induction of adverse effects at 100 to 150 mg/kg, po administered once daily for 21 days starting day 11 after tumor cells implantation", "type": "organism-based", "settings": "in vivo, 504 h"}, "[6]": {"experiment": "Cmax in Sprague-Dawley rat at 20 mg/kg, po administered via gavage by LC-MS/MS analysis", "type": "ADME, organism-based", "parameters": "dose 20 mg/kg, route oral", "settings": "in vivo"}, "Rattus norvegicus [7]": {"test_system": "Rattus norvegicus", "experiment": "Clearance in Sprague-Dawley rat at 2 mg/kg, iv administered as bolus dose by LC-MS/MS analysis", "type": "ADME, organism-based", "settings": "in vivo"}, "[8]": {"experiment": "Terminal half life in Sprague-Dawley rat at 20 mg/kg, po administered via gavage by LC-MS/MS analysis", "type": "ADME, organism-based", "settings": "in vivo, read-out: beta t1/2 (converted)"}, "Histone deacetylase 8": {"biological_target": "T1, Histone deacetylase 8 (Homo sapiens, UniProt Q9BY41)", "T1 sequence (Q9BY41 whole entry)": "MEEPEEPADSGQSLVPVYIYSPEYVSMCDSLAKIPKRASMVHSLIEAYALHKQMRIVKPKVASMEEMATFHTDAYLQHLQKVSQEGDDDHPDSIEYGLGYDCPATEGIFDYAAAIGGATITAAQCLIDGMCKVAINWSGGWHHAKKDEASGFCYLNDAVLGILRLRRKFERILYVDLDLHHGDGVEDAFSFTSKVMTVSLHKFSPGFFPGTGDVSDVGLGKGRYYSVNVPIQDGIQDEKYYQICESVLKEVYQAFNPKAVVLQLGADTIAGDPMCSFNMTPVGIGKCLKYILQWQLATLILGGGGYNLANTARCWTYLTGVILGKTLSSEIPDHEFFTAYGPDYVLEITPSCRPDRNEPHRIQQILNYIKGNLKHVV", "experiment": "Inhibition of HDAC8 (unknown origin) after 30 mins by fluorescence assay"}, "A549 [9]": {"test_system": "A549", "experiment": "Antitumor activity against human A549 cells xenografted in BALB/C nude mouse assessed as inhibition of tumor growth administered orally once daily for 21 days starting day 11 after tumor cells implantation", "type": "functional, cell-based"}, "A549 [10]": {"test_system": "A549", "experiment": "cells", "settings": "Homo sapiens, A549, 48 h, read-out: Activity"}, "A549 [11]": {"test_system": "A549", "experiment": "animal or person", "type": "functional, Homo sapiens", "settings": "Mus musculus, A549, po, read-out: TGI"}, "[12]": {"biological_target": "T2, Protein deacetylase HDAC6 (Homo sapiens, UniProt Q9UBN7)", "T2 sequence (Q9UBN7 whole entry)": "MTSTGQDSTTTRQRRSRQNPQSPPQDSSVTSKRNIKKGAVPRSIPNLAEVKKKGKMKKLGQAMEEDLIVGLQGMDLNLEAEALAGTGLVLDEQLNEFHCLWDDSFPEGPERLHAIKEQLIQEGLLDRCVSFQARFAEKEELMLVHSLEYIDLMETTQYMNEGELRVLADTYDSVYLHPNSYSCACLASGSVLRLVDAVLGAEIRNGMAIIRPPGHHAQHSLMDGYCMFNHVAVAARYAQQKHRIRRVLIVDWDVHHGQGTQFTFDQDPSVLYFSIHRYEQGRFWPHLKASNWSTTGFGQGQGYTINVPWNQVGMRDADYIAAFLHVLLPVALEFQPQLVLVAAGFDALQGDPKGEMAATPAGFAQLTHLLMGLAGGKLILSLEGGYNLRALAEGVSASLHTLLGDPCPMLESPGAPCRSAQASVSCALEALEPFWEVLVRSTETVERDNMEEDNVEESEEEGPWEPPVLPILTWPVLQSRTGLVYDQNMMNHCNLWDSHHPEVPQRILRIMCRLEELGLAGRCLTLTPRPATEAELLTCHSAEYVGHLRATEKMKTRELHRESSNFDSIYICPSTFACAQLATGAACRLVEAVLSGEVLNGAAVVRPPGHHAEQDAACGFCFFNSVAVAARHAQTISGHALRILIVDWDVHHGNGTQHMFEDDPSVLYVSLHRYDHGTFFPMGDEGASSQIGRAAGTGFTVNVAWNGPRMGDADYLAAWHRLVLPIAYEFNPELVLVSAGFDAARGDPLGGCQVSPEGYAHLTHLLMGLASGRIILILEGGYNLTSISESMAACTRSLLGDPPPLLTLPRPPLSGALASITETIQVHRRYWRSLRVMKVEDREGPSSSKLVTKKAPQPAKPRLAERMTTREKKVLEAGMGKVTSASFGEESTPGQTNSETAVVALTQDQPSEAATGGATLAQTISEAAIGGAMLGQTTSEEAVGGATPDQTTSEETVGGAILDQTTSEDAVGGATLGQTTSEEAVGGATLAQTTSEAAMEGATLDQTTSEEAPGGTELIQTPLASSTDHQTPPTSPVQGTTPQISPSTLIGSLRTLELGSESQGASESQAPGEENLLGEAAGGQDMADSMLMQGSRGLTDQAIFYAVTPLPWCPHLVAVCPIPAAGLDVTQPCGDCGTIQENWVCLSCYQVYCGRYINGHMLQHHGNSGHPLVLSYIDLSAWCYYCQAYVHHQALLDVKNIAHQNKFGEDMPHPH", "experiment": "Inhibition of HDAC6 (unknown origin) after 30 mins by fluorescence assay"}, "A549 [13]": {"test_system": "A549", "experiment": "Antiproliferative activity against human A549 cells after 72 hrs by CCK8 assay", "type": "functional, cell-based", "settings": "A549, 72 h"}, "[14]": {"biological_target": "E3 ubiquitin-protein ligase Mdm2 (Homo sapiens, UniProt Q00987)", "sequence (Q00987 whole entry)": "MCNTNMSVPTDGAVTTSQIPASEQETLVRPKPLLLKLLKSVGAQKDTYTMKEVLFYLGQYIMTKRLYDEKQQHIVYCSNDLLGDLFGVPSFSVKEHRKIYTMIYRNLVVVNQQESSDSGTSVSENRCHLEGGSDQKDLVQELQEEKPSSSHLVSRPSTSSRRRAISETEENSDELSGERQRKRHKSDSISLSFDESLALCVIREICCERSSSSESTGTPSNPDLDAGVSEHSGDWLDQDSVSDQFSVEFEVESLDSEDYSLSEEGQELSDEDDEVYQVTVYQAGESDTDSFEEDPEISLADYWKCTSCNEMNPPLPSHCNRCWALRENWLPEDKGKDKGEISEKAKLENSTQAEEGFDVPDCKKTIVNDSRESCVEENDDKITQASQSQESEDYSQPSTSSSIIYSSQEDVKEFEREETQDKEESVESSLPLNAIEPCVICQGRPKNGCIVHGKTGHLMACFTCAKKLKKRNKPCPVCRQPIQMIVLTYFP", "experiment": "Inhibition of MDM2 (unknown origin) preincubated for 30 mins by fluorescence polarization assay"}, "Mus musculus [15]": {"test_system": "Mus musculus", "experiment": "Toxicity in human A549 cells xenografted in BALB/C nude mouse assessed as body weight loss at 100 to 150 mg/kg, po administered once daily for 21 days starting day 11 after tumor cells implantation", "type": "organism-based", "settings": "in vivo, 504 h"}, "[16]": {"experiment": "Cmax in Sprague-Dawley rat at 2 mg/kg, iv administered as bolus dose by LC-MS/MS analysis", "type": "ADME, organism-based", "parameters": "dose 2 mg/kg, route intravenous", "settings": "in vivo"}, "[17]": {"experiment": "Tmax in Sprague-Dawley rat at 20 mg/kg, po administered via gavage by LC-MS/MS analysis", "type": "ADME, organism-based", "settings": "in vivo"}, "[18]": {"experiment": "Tmax in Sprague-Dawley rat at 2 mg/kg, iv administered as bolus dose by LC-MS/MS analysis", "type": "ADME, organism-based", "settings": "in vivo"}, "Rattus norvegicus [19]": {"test_system": "Rattus norvegicus", "experiment": "Oral bioavailability in Sprague-Dawley rat at 20 mg/kg administered via gavage by LC-MS/MS analysis", "type": "ADME, organism-based", "settings": "in vivo"}, "A549 [20]": {"test_system": "A549", "experiment": "Antitumor activity against human A549 cells xenografted in BALB/C nude mouse assessed as inhibition of tumor growth at 150 mg/kg, po administered once daily for 21 days starting day 11 after tumor cells implantation", "type": "functional", "settings": "read-out: TGI"}, "NCI-H1299": {"test_system": "NCI-H1299", "experiment": "Antiproliferative activity against human NCI-H1299 cells after 72 hrs by CCK8 assay", "type": "functional, cell-based", "settings": "NCI-H1299, 72 h"}, "A549 [21]": {"test_system": "A549", "experiment": "cells", "settings": "Homo sapiens, A549, 48 h, read-out: Activity", "remark": "listed apart in the source"}, "Histone deacetylase 1": {"biological_target": "Histone deacetylase 1 (Homo sapiens, UniProt Q13547)", "sequence (Q13547 whole entry)": "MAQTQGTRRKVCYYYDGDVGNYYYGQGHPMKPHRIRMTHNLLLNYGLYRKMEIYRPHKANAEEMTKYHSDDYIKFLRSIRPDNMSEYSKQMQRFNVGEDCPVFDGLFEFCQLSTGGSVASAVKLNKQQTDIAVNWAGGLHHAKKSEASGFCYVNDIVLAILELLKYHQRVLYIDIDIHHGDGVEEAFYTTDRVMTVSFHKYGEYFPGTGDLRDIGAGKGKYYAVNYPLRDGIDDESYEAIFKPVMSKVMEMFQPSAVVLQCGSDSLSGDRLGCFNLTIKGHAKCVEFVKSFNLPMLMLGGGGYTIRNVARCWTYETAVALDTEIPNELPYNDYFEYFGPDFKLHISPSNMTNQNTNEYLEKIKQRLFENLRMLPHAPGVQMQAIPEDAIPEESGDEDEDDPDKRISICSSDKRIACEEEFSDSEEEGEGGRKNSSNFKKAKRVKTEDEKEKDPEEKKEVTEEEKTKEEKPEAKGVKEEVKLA", "experiment": "Inhibition of human recombinant full length HDAC1 using fluorogenic substrate 3 after 30 mins by fluorescence assay"}},
  "data": [
    {"smiles": "CCOc1cc(C(C)(C)C)ccc1C1=NC(c2ccc(Cl)cc2)C(c2ccc(Cl)cc2)N1C(=O)N1CCN(CCCCCCC(=O)NO)CC1", "note": "(stereo not drawn)", "values": [
      {"measurement": "IC50", "setting": "MCF7", "value": 4340, "unit": "nM"},
      {"measurement": "AUC", "setting": "Rattus norvegicus [1]", "value": 323.23, "unit": "ng·h/mL"},
      {"measurement": "half-life", "setting": "[2]", "value": 1.22, "unit": "h"},
      {"measurement": "IC50", "setting": "Histone deacetylase 2", "value": 420, "unit": "nM"},
      {"measurement": "Vdss", "setting": "Rattus norvegicus [3]", "value": 4.9, "unit": "L/kg"},
      {"measurement": "IC50", "setting": "Histone deacetylase 3", "value": 178, "unit": "nM"},
      {"measurement": "IC50", "setting": "HCT-116", "value": 1080, "unit": "nM"},
      {"measurement": "AUC", "setting": "Rattus norvegicus [4]", "value": 716.3, "unit": "ng·h/mL"},
      {"measurement": "Activity", "setting": "Mus musculus [5]", "value": "Non-Toxic"},
      {"measurement": "Cmax", "setting": "[6]", "value": 93.7, "unit": "ng/mL"},
      {"measurement": "clearance", "setting": "Rattus norvegicus [7]", "value": 46.8, "unit": "mL/min/kg"},
      {"measurement": "half-life", "setting": "[8]", "value": 5.87, "unit": "h"},
      {"measurement": "IC50", "setting": "Histone deacetylase 8", "value": 1220, "unit": "nM"},
      {"measurement": "TGI", "setting": "A549 [9]", "value": "Dose-dependent effect"},
      {"measurement": "viability at 5 µM", "setting": "A549 [10]", "value": 64.9, "unit": "%"},
      {"measurement": "inhibition in vivo at 100 mg/kg", "setting": "A549 [11]", "value": 65.4, "unit": "%"},
      {"measurement": "IC50", "setting": "[12]", "value": 17.5, "unit": "nM"},
      {"measurement": "IC50", "setting": "A549 [13]", "value": 910, "unit": "nM"},
      {"measurement": "Ki", "setting": "[14]", "value": 110, "unit": "nM"},
      {"measurement": "Activity", "setting": "Mus musculus [15]", "value": "Non-Toxic"},
      {"measurement": "Cmax", "setting": "[16]", "value": 1470, "unit": "ng/mL"},
      {"measurement": "Tmax", "setting": "[17]", "value": 3.33, "unit": "h"},
      {"measurement": "Tmax", "setting": "[18]", "value": 4.98, "unit": "min"},
      {"measurement": "F", "setting": "Rattus norvegicus [19]", "value": 18, "unit": "%"},
      {"measurement": "inhibition in vivo at 150 mg/kg", "setting": "A549 [20]", "value": 74.5, "unit": "%"},
      {"measurement": "IC50", "setting": "NCI-H1299", "value": 4160, "unit": "nM"},
      {"measurement": "viability at 1 µM", "setting": "A549 [21]", "value": 77.2, "unit": "%"},
      {"measurement": "IC50", "setting": "Histone deacetylase 1", "value": 820, "unit": "nM"}
    ]}
  ]
}
